The text below walks through data of DBAASP.

Test systems include Staphylococcus aureus; Streptococcus agalactiae; Escherichia coli UB1005.
What all share (assay): ≥ marks a high value that may be exact or a test limit, other limits are often not marked, values filed in µg/mL are converted to µM
In assay [1] the test system is Enterococcus faecalis ATCC 29212.
Assay [2] concerns Staphylococcus epidermidis ATCC 12228.
For assay [3], the system named is Salmonella enterica subsp. enterica serovar Typhimurium C77-31.
In assay [4] the test system is Salmonella enterica subsp. enterica serovar Pullorum C79-13.
Assay [5] deals with Staphylococcus aureus ATCC 43300.
Assay [6] deals with Salmonella enterica subsp. enterica serovar Choleraesuis CVCC 503.
Assay [7] concerns Salmonella enterica subsp. enterica serovar Typhimurium ATCC 14028.
For assay [8], the system named is Escherichia coli ATCC 25922.
For assay [9], the system named is Staphylococcus aureus ATCC 29213.
For assay [10], the system named is Staphylococcus epidermidis C621.
Assay [11] concerns Staphylococcus aureus ATCC 25923.
Assay [12] relates to Pseudomonas aeruginosa K799.
In assay [13] the test system is Salmonella enterica subsp. enterica serovar Typhimurium ATCC 14028s.
For assay [14], the system named is Bacillus subtilis ATCC 6633.
For assay [15], the system named is Pseudomonas aeruginosa ATCC BAA-427.
Assay [16] relates to Bacillus subtilis ATCC 6051.
Assay [17] relates to Escherichia coli NEB5alpha.

Each structure is given as a SMILES string. In brackets after ≈: the same amount, converted by molar mass.

Regarding `CC(C)[C@H](N)C(=O)N[C@@H](CS)C(=O)N[C@@H](CCCN=C(N)N)C(=O)N[C@@H](CCCCN)C(=O)N1CCC[C@H]1C(=O)N[C@H](C(=O)N[C@H](C(=O)N[C@@H](CS)C(=O)N[C@@H](CCCN=C(N)N)C(=O)N[C@@H](CCCCN)C(=O)N1CCC[C@H]1C(=O)N[C@H](C(=O)N[C@H](C(=O)N[C@@H](CS)C(=O)N[C@@H](CCCN=C(N)N)C(=O)N[C@@H](CCCCN)C(=O)N1CCC[C@H]1C(=O)N[C@H](C(=O)N[C@H](C(=O)N[C@@H](CS)C(=O)N[C@@H](CCCN=C(N)N)C(=O)N[C@@H](CCCCN)C(=O)N1CCC[C@H]1C(=O)N[C@H](C(N)=O)C(C)C)C(C)C)C(C)C)C(C)C)C(C)C)C(C)C)C(C)C` [VCRKPVVCRKPVVCRKPVVCRKPV], the minimal inhibitory concentration (MIC) is greater than 64 µM in assay [1]; greater than 64 µM in assay [2]; greater than 64 µM in the assay on Staphylococcus aureus; 8 µM (≈ 22 µg/mL) in [3]; no less than 64 µM in assay [4]; greater than 64 µM in [5]. Further, the MIC was no less than 64 µM in assay [6]; no less than 64 µM against Streptococcus agalactiae; 8 µM (≈ 22 µg/mL) in assay [7]; 8 µM (≈ 22 µg/mL) in assay [8]; greater than 64 µM in assay [9]; 8 µM (≈ 22 µg/mL) against Escherichia coli UB1005.

`CC[C@H](C)[C@@H]1NC(=O)[C@H](CCCN=C(N)N)NC(=O)[C@H](C(C)C)NC(=O)[C@H](CCCN=C(N)N)NC(=O)[C@@H]2CCCN2C(=O)[C@@H](NC(=O)[C@H](CC(C)C)NC(=O)[C@@H](N)CCCN=C(N)N)CSSC[C@@H](C(=O)N[C@@H](CCCN=C(N)N)C(N)=O)NC(=O)[C@H](C(C)C)NC(=O)[C@H](CCCN=C(N)N)NC1=O` [RLCPRVRIRVCR]: the MIC in assay [1] was greater than 21 µM; in assay [10] it was 10.5 µM (≈ 16 µg/mL); in assay [11], greater than 21 µM; in assay [12], 10.5 µM (≈ 16 µg/mL); in [13], 21 µM (≈ 31.9 µg/mL); against Escherichia coli UB1005, 2.62 µM (≈ 3.99 µg/mL).

For the molecule `CC[C@H](C)[C@H](N)C(=O)N[C@H](C(=O)N[C@H](C(=O)N[C@@H](CS)C(=O)N[C@@H](CCCN=C(N)N)C(=O)N[C@@H](CCCCN)C(=O)N1CCC[C@H]1C(=O)N[C@H](C(=O)N[C@H](C(=O)N[C@@H](CS)C(=O)N[C@@H](CCCN=C(N)N)C(=O)N[C@@H](CCCCN)C(=O)N1CCC[C@H]1C(=O)N[C@H](C(=O)N[C@H](C(=O)N[C@H](C(N)=O)[C@@H](C)CC)[C@@H](C)CC)[C@@H](C)CC)[C@@H](C)CC)[C@@H](C)CC)[C@@H](C)CC)[C@@H](C)CC` [IIICRKPIICRKPIII], the MIC in assay [1] is greater than 64 µM; in [2] it was greater than 64 µM; in the assay on Staphylococcus aureus, greater than 64 µM; in assay [3], no less than 32 µM; in assay [4], no less than 32 µM; in assay [5] it was greater than 64 µM. Moreover, the MIC was no less than 32 µM in assay [6]; no less than 64 µM against Streptococcus agalactiae; 32 µM (≈ 60.5 µg/mL) in [7]; 8 µM (≈ 15.1 µg/mL) in [8]; greater than 64 µM in assay [9]; 8 µM (≈ 15.1 µg/mL) against Escherichia coli UB1005.

As to `CC[C@H](C)[C@H](N)C(=O)N[C@H](C(=O)N[C@H](C(=O)N[C@@H](CS)C(=O)N[C@@H](CCCN=C(N)N)C(=O)N[C@@H](CCCCN)C(=O)N1CCC[C@H]1C(=O)N[C@H](C(=O)N[C@H](C(=O)N[C@@H](CS)C(=O)N[C@@H](CCCN=C(N)N)C(=O)N[C@@H](CCCCN)C(=O)N1CCC[C@H]1C(=O)N[C@H](C(=O)N[C@H](C(=O)N[C@@H](CS)C(=O)N[C@@H](CCCN=C(N)N)C(=O)N[C@@H](CCCCN)C(=O)N1CCC[C@H]1C(=O)N[C@H](C(=O)N[C@H](C(=O)N[C@@H](CS)C(=O)N[C@@H](CCCN=C(N)N)C(=O)N[C@@H](CCCCN)C(=O)N1CCC[C@H]1C(=O)N[C@H](C(=O)N[C@H](C(=O)N[C@H](C(N)=O)[C@@H](C)CC)[C@@H](C)CC)[C@@H](C)CC)[C@@H](C)CC)[C@@H](C)CC)[C@@H](C)CC)[C@@H](C)CC)[C@@H](C)CC)[C@@H](C)CC)[C@@H](C)CC)[C@@H](C)CC` [IIICRKPIICRKPIICRKPIICRKPIII], the minimum inhibitory concentration (MIC) in [1] amounted to 8 µM (≈ 26.5 µg/mL); in assay [2] it was 4 µM (≈ 13.3 µg/mL); in the assay with Staphylococcus aureus it was 4 µM (≈ 13.3 µg/mL); in assay [3], 2 µM (≈ 6.63 µg/mL); in assay [4], 4 µM (≈ 13.3 µg/mL); in assay [5], 4 µM (≈ 13.3 µg/mL). The MIC (in assay [6]; with Streptococcus agalactiae; in [7]; with Escherichia coli UB1005) was 2 µM (≈ 6.63 µg/mL) each time.

As for `CC(C)C[C@H](NC(=O)[C@H](CC(=O)O)NC(=O)[C@H](CC(C)C)NC(=O)[C@H](CCCCN)NC(=O)[C@H](CC(C)C)NC(=O)[C@H](CC(=O)O)NC(=O)[C@H](CC(C)C)NC(=O)[C@H](CCCCN)NC(=O)[C@H](CC(C)C)NC(=O)[C@H](CC(=O)O)NC(=O)[C@H](CC(C)C)NC(=O)[C@H](CCCCN)NC(=O)[C@H](CCCN=C(N)N)NC(=O)[C@@H](N)CCCN=C(N)N)C(=O)O` [RRKLDLKLDLKLDL], the minimal inhibitory concentration (MIC) in [14] came out at 10 µM (≈ 17.4 µg/mL); in assay [11], 8 µM (≈ 13.9 µg/mL); in [8], 10 µM (≈ 17.4 µg/mL); in assay [15], 10 µM (≈ 17.4 µg/mL).

`CC(C)C[C@H](NC(=O)[C@H](CC(=O)O)NC(=O)[C@H](CC(C)C)NC(=O)[C@H](CCCCN)NC(=O)[C@H](CC(C)C)NC(=O)[C@H](CC(=O)O)NC(=O)[C@H](CC(C)C)NC(=O)[C@H](CCCCN)NC(=O)[C@H](CC(C)C)NC(=O)[C@H](CC(=O)O)NC(=O)[C@H](CC(C)C)NC(=O)[C@H](CCCCN)NC(=O)[C@@H](N)CCCN=C(N)N)C(=O)O` [RKLDLKLDLKLDL]: the MIC is 30 µM (≈ 47.5 µg/mL) in [14], 25 µM (≈ 39.6 µg/mL) in assay [11], 30 µM (≈ 47.5 µg/mL) in assay [8] and no less than 42 µM in [15].

With `CC[C@H](C)[C@H](N)C(=O)N[C@@H](CS)C(=O)N[C@@H](CCCN=C(N)N)C(=O)N[C@@H](CCCCN)C(=O)N1CCC[C@H]1C(=O)N[C@H](C(=O)N[C@H](C(=O)N[C@@H](CS)C(=O)N[C@@H](CCCN=C(N)N)C(=O)N[C@@H](CCCCN)C(=O)N1CCC[C@H]1C(=O)N[C@H](C(=O)N[C@H](C(=O)N[C@@H](CS)C(=O)N[C@@H](CCCN=C(N)N)C(=O)N[C@@H](CCCCN)C(=O)N1CCC[C@H]1C(=O)N[C@H](C(N)=O)[C@@H](C)CC)[C@@H](C)CC)[C@@H](C)CC)[C@@H](C)CC)[C@@H](C)CC` [ICRKPIICRKPIICRKPI], the MIC in assay [1] is greater than 64 µM; in assay [2], greater than 64 µM; in the assay on Staphylococcus aureus, greater than 64 µM; in assay [3], 8 µM (≈ 17.2 µg/mL); in assay [4], no less than 64 µM; in assay [5], greater than 64 µM. Also, the MIC in assay [6] was 16 µM (≈ 34.4 µg/mL); against Streptococcus agalactiae, no less than 64 µM; in assay [7] it was 8 µM (≈ 17.2 µg/mL); in assay [8], 8 µM (≈ 17.2 µg/mL); in [9] it was greater than 64 µM; against Escherichia coli UB1005, 4 µM (≈ 8.6 µg/mL).

With `CC[C@H](C)[C@H](NC(=O)[C@H](C)NC(=O)CNC(=O)[C@H](CCCCN)NC(=O)[C@H](CCC(=O)O)NC(=O)[C@H](CCC(=O)O)NC(=O)[C@H](CC(=O)O)NC(=O)[C@H](CCC(=O)O)NC(=O)[C@H](CC(N)=O)NC(=O)[C@H](CCCN=C(N)N)NC(=O)CNC(=O)[C@H](CCC(N)=O)NC(=O)[C@H](CC(C)C)NC(=O)[C@@H](N)CCCCN)C(=O)N[C@H](C(=O)N[C@@H](CCCCN)C(=O)N[C@H](C(=O)N[C@@H](CCCCN)C(=O)NCC(=O)NCC(=O)N[C@@H](CC(C)C)C(=O)O)C(C)C)C(C)C` [KLQGRNEDEEKGAIVKVKGGL], the MIC in assay [16] and in [17] was no less than 1000 µM throughout.
